In US9937204B2 (priority 2008, dated 2018):

Columns and labels:
non-albicans isolates = conditions: out of 100 non-albicans isolates from HIV patients with thrush; cited from earlier work
Candida species = assay: Time-kill assay, all species together; format: cell-based; conditions: chlorhexidine gluconate concentrations tested (0.015-0.12%); within one minute of exposure
Method: Following exposure, 100 μl aliquots were diluted 50% with 0.85% saline and plated onto potato dextrose agar plates. The aliquots were allowed to dry and then were streaked to remove the yeast from the compound. The plates were incubated at 35° C. for 24 hours. Colony counts were taken and were compared to initial inoculum. The same test was done treating the four Candida species with chlorhexidine gluconate at concentrations ranging from 0.015-0.12%. Chlorhexidine gluconate at concentration 0.12% is commonly prescribed to patients with oral disease.

Structure (SMILES)	Number of isolates resistant (non-albicans isolates)	Time-kill result in words (colony count) (Candida species)
OC(Cn1cncn1)(Cn1cncn1)c1ccc(F)cc1F [fluconazole]	88	–
N=C(NCCCCCCNC(=N)NC(=N)Nc1ccc(Cl)cc1)NC(=N)Nc1ccc(Cl)cc1.O=C(O)[C@H](O)[C@@H](O)[C@H](O)[C@H](O)CO.O=C(O)[C@H](O)[C@@H](O)[C@H](O)[C@H](O)CO [chlorhexidine gluconate, Chlorhexidine gluconate]	–	did not reduce the colony count
